Assay results as given in ChEMBL document CHEMBL1201862, “PubChem BioAssay data set” (2004).
Calls of active or inactive are those of the source.

Columns and labels:
A549 = assay: A549 cell toxicity, dose response, cytotoxicity control, plate reader, cherry-pick samples (AID 687028); assay type: functional, cell-based; conditions: Homo sapiens
[1] = HepG2 cell cytotoxicity, dose response, cytotoxicity control, cherry-picks, set 5 (AID 1053118); assay type: functional, cell-based
[2] = HEK293 cell cytotoxicity, dose response, cytotoxicity control, cherry-picks, set 5 (AID 1053117); assay type: functional, cell-based
[3] = inhibitors of fibronectin matrix deposition, dose response, AH1F cells, Alexa488-FN fluorescence, cherry-picks (AID 1035475); assay type: functional, cell-based
[4] = HIV Env cell-cell fusion inhibitors, dose response, HIV entry, plate reader, dry powder (AID 687023); assay type: functional, cell-based
[5] = cytotoxicity in OVCAR8 ovarian cancer cells, dose response, PAX8 project, cell-based, plate reader, dry powder samples (AID 743197); assay type: functional; conditions: OVCAR-8
[6] = A2780 ovarian cancer cell cytotoxicity, dose response, cytotoxicity control, plate reader, dry powder samples (AID 743046); assay type: functional, cell-based
[7] = NIH:OVCAR-3 ovarian cancer cell cytotoxicity, dose response, PAX8 inhibitor project, plate reader, dry powder samples (AID 743044); assay type: functional, cell-based
[8] = IOSE-T80 ovarian epithelial cell cytotoxicity, dose response, cytotoxicity control for PAX8 inhibitor project, plate reader, dry powder samples (AID 743045); assay type: functional, cell-based
Paired box protein Pax-8 = Paired box protein Pax-8 (Homo sapiens, UniProt Q06710); assay: inhibitors of PAX8-driven TPO luciferase reporter, dose response, RMG-I cells, cherry-pick (AID 687027); assay type: functional, cell-based;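 note: luciferase reporter driven by Pax8 target thyroperoxidase promoter measured by SteadyGlo luminescence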
Paired box protein Pax-8, sequence (Q06710 whole entry): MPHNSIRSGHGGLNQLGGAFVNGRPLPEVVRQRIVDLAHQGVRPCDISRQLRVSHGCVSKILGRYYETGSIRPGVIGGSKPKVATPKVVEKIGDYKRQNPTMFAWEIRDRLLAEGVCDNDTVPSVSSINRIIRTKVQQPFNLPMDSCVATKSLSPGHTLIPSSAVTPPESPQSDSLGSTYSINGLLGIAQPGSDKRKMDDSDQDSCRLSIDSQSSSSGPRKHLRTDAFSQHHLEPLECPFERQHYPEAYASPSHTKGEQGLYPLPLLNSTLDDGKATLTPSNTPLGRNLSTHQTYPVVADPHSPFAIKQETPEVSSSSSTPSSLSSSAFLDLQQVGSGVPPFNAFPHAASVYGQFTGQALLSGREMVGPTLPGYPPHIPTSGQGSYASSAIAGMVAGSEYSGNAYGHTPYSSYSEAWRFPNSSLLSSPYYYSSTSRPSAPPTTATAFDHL

[9] = biological target: Botulinum neurotoxin type F (Clostridium botulinum, UniProt P30996); assay: High-throughput multiplex microsphere dose response for inhibitors of toxin protease, specifically Botulinum neurotoxin light chain F protease, compounds from Cherry Pick 02.; assay type: functional; conditions: read-out: EC50_MICROM
Botulinum neurotoxin type F, sequence (P30996 1-436 limits assumed): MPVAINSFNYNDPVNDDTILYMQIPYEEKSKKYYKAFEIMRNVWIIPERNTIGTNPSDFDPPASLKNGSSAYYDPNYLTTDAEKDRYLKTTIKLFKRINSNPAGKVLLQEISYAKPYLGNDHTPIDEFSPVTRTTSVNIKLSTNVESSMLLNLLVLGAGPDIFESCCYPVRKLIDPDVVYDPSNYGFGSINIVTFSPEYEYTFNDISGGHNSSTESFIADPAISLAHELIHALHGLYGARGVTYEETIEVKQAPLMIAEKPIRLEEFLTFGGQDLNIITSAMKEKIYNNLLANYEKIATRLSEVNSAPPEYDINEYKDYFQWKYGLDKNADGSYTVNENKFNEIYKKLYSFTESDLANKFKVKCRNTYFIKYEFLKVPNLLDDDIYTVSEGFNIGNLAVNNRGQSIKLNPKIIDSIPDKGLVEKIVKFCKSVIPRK

[10] = NIH-3T3 fibroblast cytotoxicity, dose response, cytotoxicity control, cell-based, fluorescence, Alamar Blue, secondary assay (AID 2327); assay type: functional;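 note: NIH-3T3 mouse fibroblasts cultured with fluconazole at 8 µg/mL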
Albumin = Albumin (Bos taurus, UniProt P02769); assay: Counterscreen for inhibitors of T-cell receptor (TCR)-CD3 interaction: Fluorescence-based biochemical high throughput dose response assay to identify inhibitors of T-cell receptor (TCR)-CD3 interaction using a TAMRA-labeled BSA probe.; assay type: functional
Albumin, sequence (P02769 whole entry): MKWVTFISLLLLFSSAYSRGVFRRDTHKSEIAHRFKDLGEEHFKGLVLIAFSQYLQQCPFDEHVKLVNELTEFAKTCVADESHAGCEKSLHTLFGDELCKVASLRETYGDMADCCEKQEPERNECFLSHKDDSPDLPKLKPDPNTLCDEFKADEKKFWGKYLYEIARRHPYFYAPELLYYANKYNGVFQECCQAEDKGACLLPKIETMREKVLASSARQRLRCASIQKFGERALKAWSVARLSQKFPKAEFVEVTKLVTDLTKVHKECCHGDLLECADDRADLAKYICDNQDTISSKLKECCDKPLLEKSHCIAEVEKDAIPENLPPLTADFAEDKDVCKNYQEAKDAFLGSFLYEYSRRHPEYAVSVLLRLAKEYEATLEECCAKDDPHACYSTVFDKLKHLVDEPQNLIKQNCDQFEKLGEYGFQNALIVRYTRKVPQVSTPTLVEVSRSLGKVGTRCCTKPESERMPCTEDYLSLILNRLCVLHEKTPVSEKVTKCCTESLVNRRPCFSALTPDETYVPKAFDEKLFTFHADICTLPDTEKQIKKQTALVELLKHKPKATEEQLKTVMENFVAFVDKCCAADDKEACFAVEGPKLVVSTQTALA

[11] = C. albicans growth with fluconazole, confirmation, fluorescence, retest (AID 2467); assay type: functional, cell-based
[12] = biological target: T1, Corticotropin-releasing factor receptor 2/Corticotropin-releasing factor-binding protein (Homo sapiens, UniProt P24387+Q13324); assay: activators of CRF receptor 2 with binding protein – uHTS hits, confirmation (AID 602473); assay type: functional; conditions: read-out: EC50_Mean
T1 sequence (Q13324 whole entry): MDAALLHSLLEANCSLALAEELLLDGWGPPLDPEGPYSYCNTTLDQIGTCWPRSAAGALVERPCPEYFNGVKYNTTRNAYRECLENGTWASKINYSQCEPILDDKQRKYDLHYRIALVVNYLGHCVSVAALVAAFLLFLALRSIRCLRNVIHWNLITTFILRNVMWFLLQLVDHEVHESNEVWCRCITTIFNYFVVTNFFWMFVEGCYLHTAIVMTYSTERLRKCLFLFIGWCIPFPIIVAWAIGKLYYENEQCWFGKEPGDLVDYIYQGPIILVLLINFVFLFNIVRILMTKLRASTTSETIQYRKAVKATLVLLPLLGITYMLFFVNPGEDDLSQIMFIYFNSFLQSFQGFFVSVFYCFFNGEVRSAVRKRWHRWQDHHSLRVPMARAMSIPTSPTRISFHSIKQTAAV
T1 sequence (P24387 whole entry): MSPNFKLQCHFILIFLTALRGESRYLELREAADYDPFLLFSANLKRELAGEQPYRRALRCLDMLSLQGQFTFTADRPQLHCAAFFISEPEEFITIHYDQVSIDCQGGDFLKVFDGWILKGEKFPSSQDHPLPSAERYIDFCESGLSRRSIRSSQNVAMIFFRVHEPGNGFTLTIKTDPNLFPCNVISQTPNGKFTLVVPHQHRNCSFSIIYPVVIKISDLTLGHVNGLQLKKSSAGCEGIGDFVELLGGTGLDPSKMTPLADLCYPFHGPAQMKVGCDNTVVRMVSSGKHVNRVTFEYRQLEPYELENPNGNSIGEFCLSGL

[13] = CRF-BP/CRF-R2 complex antagonists, dose response, cell-based, uHTS hits, 384-well (AID 651639); assay type: functional, Homo sapiens; conditions: read-out: IC50_Mean
Beta-lactamase [14] = biological target: T2, Beta-lactamase (Pseudomonas aeruginosa, UniProt Q79MP6); assay: […] counterscreen for selective VIM-2 inhibitors: dose response biochemical high throughput screening assay to identify inhibitors of IMP-1 metallo-beta-lactamase.
T2 sequence (Q79MP6 whole entry): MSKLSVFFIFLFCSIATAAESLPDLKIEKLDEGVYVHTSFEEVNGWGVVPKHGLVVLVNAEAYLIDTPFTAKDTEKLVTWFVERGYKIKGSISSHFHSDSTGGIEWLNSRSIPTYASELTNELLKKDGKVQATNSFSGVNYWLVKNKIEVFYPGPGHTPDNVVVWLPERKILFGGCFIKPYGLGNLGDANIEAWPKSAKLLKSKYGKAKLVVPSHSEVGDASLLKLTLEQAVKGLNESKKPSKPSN

Beta-lactamase [15] = biological target: T2, Beta-lactamase; assay: IMP-1 metallo-beta-lactamase inhibitors, dose response, selectivity assay for VIM-2 inhibitor project, biochemical, epi-absorbance (AID 1920)
[16] = biological target: T1, Corticotropin-releasing factor receptor 2/Corticotropin-releasing factor-binding protein; assay: Dose Response confirmation of uHTS hits for small molecule antagonists of the CRF-binding protein and CRF-R2 receptor complex.; assay type: functional; conditions: read-out: IC50_Mean
Beta-lactamase [17] = biological target: Beta-lactamase (Salmonella choleraesuis (strain SC-B67), UniProt Q5J463); assay: Epi-absorbance-based counterscreen for selective VIM-2 inhibitors: dose response biochemical high throughput screening assay to identify inhibitors of TEM-1 serine-beta-lactamase.
Beta-lactamase (Salmonella choleraesuis (strain SC-B67), UniProt Q5J463), sequence (Q5J463 whole entry): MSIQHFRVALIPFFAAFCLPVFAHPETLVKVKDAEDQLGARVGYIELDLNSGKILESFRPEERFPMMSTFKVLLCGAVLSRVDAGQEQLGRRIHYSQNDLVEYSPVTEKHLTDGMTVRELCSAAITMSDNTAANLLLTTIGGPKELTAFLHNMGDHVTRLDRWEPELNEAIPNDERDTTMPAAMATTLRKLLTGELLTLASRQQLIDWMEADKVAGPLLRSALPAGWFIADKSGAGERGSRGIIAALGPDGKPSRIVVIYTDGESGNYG

[18] = IGROV1 ovarian cancer cell cytotoxicity, dose response, PAX8 inhibitor project, plate reader, dry powder samples (AID 743043); assay type: functional, cell-based; conditions: IGROV-1

In the case of `C[C@]1(C(=O)NCCc2c[nH]c3ccccc23)C=C[C@@H](Cc2ccccc2)N1C(=O)c1ccccc1`, the AC50 (A549) is reported as 20.6 µM (active).
For `C[C@H](CO)N1C[C@H](C)[C@H](CN(C)Cc2ccc(-c3ccccc3)cc2)Oc2ccc(NC(=O)CCCN(C)C)cc2C1=O`, the AC50 [1] was 11.8 µM (active), the AC50 [2] was 12.7 µM (active) and the AC50 [3] was 30.8 µM (active).
In the case of `CCOc1ccc(OCC)c(S(=O)(=O)NCc2ccncc2)c1`, the AC50 [4] is reported as > 70 µM (inactive).
In the case of `COc1ccc(-c2ccc3c(c2)[C@@H]2[C@@H](CCN2C(=O)NC2CCCCC2)[C@H](CO)N3C)cc1`, the AC50 [5] is reported as > 60 µM (inactive), the AC50 [6] is reported as 32.8 µM (active) and the AC50 [7] is reported as 49.5 µM (active). For the same molecule, the AC50 [8] was 46.8 µM (active) and the AC50 (Paired box protein Pax-8) was 10.7 µM (active).
With `COc1ccc(C(CNC(=O)c2cc(S(=O)(=O)N3CCCCC3)ccc2C)N2CCCC2)cc1` (centres undefined) the EC50 [9] was > 20 µM (inactive).
For `COc1ccc(NC(=O)NNC(=O)c2cc3ccccc3cc2O)cc1`, the EC50 [10] was > 160 µM (inactive), the IC50 (Albumin) was > 94.1 µM (inactive) and the EC50 [11] was > 38 µM (not active).
With `Oc1nc(SCc2nnc(S)n2-c2ccccc2)nc2sc3c(c12)CCC3` the EC50 [12] was > 53 µM (inactive), the IC50 [13] was 6.63 µM (active) and the IC50 (Beta-lactamase [14]) was > 59.6 µM (inactive). For the same molecule, the IC50 (Beta-lactamase [15]) was > 59.6 µM (inactive), the IC50 [16] was 13.5 µM (active) and the IC50 (Beta-lactamase [17]) was > 59.6 µM (inactive).
With `C[C@H]1CCCCO[C@H](CN(C)Cc2ccc(C(F)(F)F)cc2)[C@@H](C)CN([C@@H](C)CO)C(=O)c2cc(NC(=O)Cc3ccccc3)ccc2O1` the AC50 [5] was 53 µM (active), the AC50 [7] was 29.7 µM (active) and the AC50 [18] was 31.9 µM (active). The AC50 (Paired box protein Pax-8) was 7.6 µM (active).
